Reference: the supplement of paper PMC5579334

What was measured:
YST-1 = assay: relative IC50 (inflection point of fitted dose-response curve, CellTiter-Glo viability, 72 h; top asymptote may be below 50% inhibition); higher = less potent
Procedure, shortened: (§1)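 MPNST cell lines and primary human Schwann cells (750–1000 cells per well) went into 384-well plates preprinted with each compound at five concentrations in 10-fold steps. Plates were incubated 72 h at 37 °C, 5% CO2. Viability was read as CellTiter-Glo ATP luminescence, scaled between vehicle and positive-control wells, with duplicates averaged where present. Percent inhibition is at the top concentration; drug sensitivity score and relative IC50 (censored at top concentration) come from four-parameter logistic fits.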

HS-Sch-2 = assay: as above
Procedure, shortened: as §1

HS-PSS [1] = assay: as above
Procedure, shortened: as §1

HS-PSS [2] = assay: relative IC50 (inflection point of fitted dose-response curve, CellTox-Green cytotoxicity, 72 h; top asymptote may be below 50%); higher = less potent
Procedure, shortened: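 MPNST cell lines and primary human Schwann cells were incubated 72 h at 37 °C in 384-well plates holding five 10-fold compound dilutions. CellTox-Green was added before seeding at a final 1:1000 dilution and reported fluorescence from DNA released by disrupted cells. Signals were scaled to vehicle and positive-control wells, and cultures failing plate quality control were dropped. Drug sensitivity score and relative IC50 come from four-parameter logistic fits, with IC50 censored at the top concentration.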

Row | SMILES | relative IC50 (YST-1) [µM] | relative IC50 (HS-Sch-2) [µM] | relative IC50 (HS-PSS [1]) [µM] | relative IC50 (HS-PSS [2]) [µM]
1 | COc1cccc2c1C(=O)c1c(O)c3c(c(O)c1C2=O)C[C@@](O)(/C(CO)=N/NC(=O)CCCCCN1C(=O)C=CC1=O)C[C@@H]3O[C@H]1C[C@H](N)[C@H](O)[C@H](C)O1 [Aldoxorubicin] | 0.0515 | 0.105 | 0.158 | 0.181
2 | O=C(O)C(=O)O.[NH-][C@@H]1CCCC[C@H]1[NH-].[Pt+2] [Oxaliplatin] | 1.97 | 9.67 | 7.51 | 23.2
3 | CC(C)(O)CC(=O)NCCn1ccc2ncnc(Nc3ccc(Oc4cccc(C(F)(F)F)c4)c(Cl)c3)c21 [TAK-285] | > 2.5 | > 2.5 | > 2.5 | > 2.5
4 | C[C@@H](Nc1cc(F)cc(F)c1)c1cc(C(=O)N(C)C)cc2c(=O)cc(N3CCOCC3)oc12 [AZD-8186] | 0.357 | > 1 | > 1 | > 1
5 | Cc1cc(C)c(CNC(=O)c2cc(-c3ccc(CN4CCOCC4)cc3)cc3c2cnn3C2CCCC2)c(=O)[nH]1 [EPZ-5687] | > 10 | > 10 | > 10 | > 10
6 | CCS(=O)(=O)N1CC(CC#N)(n2cc(-c3ncnc4[nH]ccc34)cn2)C1 [Baricitinib] | > 2.5 | > 2.5 | > 2.5 | > 2.5
7 | CNc1ncc2cc(-c3cc(NC(=O)NCCC(C)(C)C)c(F)cc3C)c(C)nc2n1 | 0.561 | 0.235 | 3.82 | 3.59
8 | CNC(=O)c1ccc(C)c(-n2c(C)cc(OCc3ccc(F)cc3F)c(Br)c2=O)c1 | 0.0446 | > 1 | > 1 | > 1
9 | C/C=C1\NC(=O)[C@H]2CSSCC/C=C/[C@H](CC(=O)N[C@H](C(C)C)C(=O)N2)OC(=O)[C@H](C(C)C)NC1=O [Romidepsin] | 0.00075 | 0.002 | 0.3 | 0.337
10 | COC[C@H](NC(=O)c1cnc(C)s1)C(=O)N[C@@H](COC)C(=O)N[C@@H](Cc1ccccc1)C(=O)[C@@]1(C)CO1 [Oprozomib] | 0.0721 | 0.0167 | 0.148 | 0.486
11 | CCS(=O)(=O)N1CCN(c2ccc(Nc3ncc(C(N)=O)c(NC4CC4)n3)cc2)CC1 [Cerdulatinib] | > 10 | 1.88 | 1.27 | > 10
12 | CCN(CC)Cc1ccc2cc(COC(=O)Nc3ccc(C(=O)NO)cc3)ccc2c1 [Givinostat] | 0.0637 | 0.166 | 0.351 | 0.253
13 | COc1cc(N2CCN(C)CC2)ccc1Nc1nccc(-c2cn(C)c3cnccc23)n1 [AZ191] | 3.4 | 3.35 | 2.61 | 2.46
14 | COc1cc(OC)c(/C=C/S(=O)(=O)Cc2ccc(OC)c(NCC(=O)O)c2)c(OC)c1 [Rigosertib] | 0.0592 | 0.0922 | 0.13 | > 10
15 | CCCC(CCC)C(=O)O [Valproic acid] | 306 | > 1000 | > 1000 | > 1000
16 | O=C(Nc1nc2ccccc2n1CCN1CCOCC1)c1cccc([N+](=O)[O-])c1 [IRAK1/4 inhibitor] | > 25 | > 25 | > 25 | > 25
17 | N[C@@H]1CCCN(c2c(/C=C3\SC(=O)NC3=O)cccc2-c2ccccc2)C1 [AZD1208] | 0.204 | > 10 | > 10 | > 10
18 | C[C@@H](Oc1cc(-n2cnc3ccc(CN4CCN(C)CC4)cc32)sc1C(N)=O)c1ccccc1C(F)(F)F | 0.0209 | 0.0119 | 0.501 | 3.2
19 | CC(C)N(C[C@H]1O[C@@H](n2cnc3c(N)ncnc32)[C@H](O)[C@@H]1O)[C@H]1C[C@@H](CCc2nc3cc(C(C)(C)C)ccc3[nH]2)C1 [Pinometostat] | > 1 | > 1 | > 1 | > 1
20 | CCN(CC)C(=S)SSC(=S)N(CC)CC [Disulfiram] | 0.303 | 0.6 | 0.291 | 6.65
21 | Cn1nccc1Nc1nccc(-c2ccn([C@H](CO)c3ccc(Cl)c(F)c3)c(=O)c2)n1 [GDC-0994] | 4.28 | 2.76 | > 10 | > 10
22 | Cn1cc(-c2ccc3nnc(Sc4ccc5ncccc5c4)n3n2)cn1 [SGX-523] | > 5 | > 5 | > 5 | > 5
23 | CN1CCN(c2cc(C(=O)Nc3ccc4c(c3)-c3c(c(C(N)=O)nn3-c3ccc(F)cc3)CC4)c(Cl)cn2)CC1 [PHA 408] | 3.08 | 3.28 | 2.4 | 3.27
24 | O=c1sn(-c2cccc3ccccc23)c(=O)n1Cc1ccccc1 [Tideglusib] | > 3 | > 3 | > 3 | > 3
25 | Cn1cc(-c2cnn3c(N)c(Br)c([C@@H]4CCCNC4)nc23)cn1 [MK-8776] | 0.362 | 0.36 | > 2.5 | > 2.5
26 | O=C1NC(=O)/C(=C/c2ccc3nccc(-c4ccncc4)c3c2)S1 | 1.17 | 3.38 | 3.06 | > 10
